We go through seven molecules from ChEMBL document CHEMBL4393693, “Synthesis and Structure-Activity relationship of 1-(5-isoquinolinesulfonyl)piperazine analogues as inhibitors of Mycobacterium tuberculosis IMPDH” (Eur J Med Chem, 2019).

SMILES strings stand for the structures.

System in one assay: not listed separately
Nature of the assay: Selective ratio of inhibition of GuaB2 Tyr487Cys mutant in Mycobacterium tuberculosis H37Rv SRMV2.6 to inhibition of wild type GuaB2 in Mycobacterium tuberculosis H37Rv.
As to `Cc1ccccc1CNC(=O)N1CCN(S(=O)(=O)c2cccc3cnccc23)CC1`, the Ratio fell in the range of 16 to 32. `O=C(Nc1ccc2c(c1)OCO2)N1CCN(S(=O)(=O)c2cccc3cnccc23)CC1`: the Ratio was found to be 4. Still for that read-out and setting: next, `CC1CCCCC1C(=O)N1CCN(S(=O)(=O)c2cccc3cnccc23)CC1` (configuration not stated): 16 to 32; `CC1CN(S(=O)(=O)c2cccc3cnccc23)CCN1C(=O)Nc1ccc2c(c1)OCO2` (configuration not stated): 8 to 16.

For `O=C(Nc1ccc2c(c1)OCO2)N1CCCN(S(=O)(=O)c2cccc3cnccc23)CC1`, the Ratio is 8 to 16.

For `O=C(C1CCCCC1)N1CCN(S(=O)(=O)c2cccc3cnccc23)CC1`, the Ratio amounted to 32.

Another assay deals with Mycobacterium tuberculosis. Nature of the assay: Antimycobacterial activity against Mycobacterium tuberculosis H37Rv SRMV2.6 harboring GuaB2 Tyr487Cys mutant assessed as reduction in bacterial cell growth incubated for 3 to 4 weeks by alamar blue fluorescence based broth microdilution assay. The format is functional. A general note: Resazurin is reduced to fluorescent resorufin, in cell work by metabolically active cells.
A word on the MIC90: it is the lowest concentration that inhibits either 90% of growth or 90% of the strains tested, depending on the study. Regarding `COc1cccc(CNC(=O)N2CCN(S(=O)(=O)c3cccc4cnccc34)CC2)c1`, the MIC90 is greater than 100 µM.
